Measured values from patent EP0888346B1, “CORALYNE ANALOGS AS TOPOISOMERASE INHIBITORS” (RUTGERS, THE STATE UNIVERSITY OF NEW JERSEY, priority 1996, dated 1997).
Numbering of substitutions follows the chain as printed. Values joined by “and” are separate entries in the source; they are usually repeats but may differ in a detail not shown here. Equal entries are not always repeated.

Experiments:
human topoisomerase I = molecular target: T1, human topoisomerase I (Homo sapiens, UniProt P11387); test: Topo I cleavage assay (plasmid YEpG DNA); format: biochemical
T1 construct: 15 amino acid vector-derived fusion (pET-11a leader); made in house; host or cells: E. coli BL21(DE3)
T1 sequence (P11387 1-765): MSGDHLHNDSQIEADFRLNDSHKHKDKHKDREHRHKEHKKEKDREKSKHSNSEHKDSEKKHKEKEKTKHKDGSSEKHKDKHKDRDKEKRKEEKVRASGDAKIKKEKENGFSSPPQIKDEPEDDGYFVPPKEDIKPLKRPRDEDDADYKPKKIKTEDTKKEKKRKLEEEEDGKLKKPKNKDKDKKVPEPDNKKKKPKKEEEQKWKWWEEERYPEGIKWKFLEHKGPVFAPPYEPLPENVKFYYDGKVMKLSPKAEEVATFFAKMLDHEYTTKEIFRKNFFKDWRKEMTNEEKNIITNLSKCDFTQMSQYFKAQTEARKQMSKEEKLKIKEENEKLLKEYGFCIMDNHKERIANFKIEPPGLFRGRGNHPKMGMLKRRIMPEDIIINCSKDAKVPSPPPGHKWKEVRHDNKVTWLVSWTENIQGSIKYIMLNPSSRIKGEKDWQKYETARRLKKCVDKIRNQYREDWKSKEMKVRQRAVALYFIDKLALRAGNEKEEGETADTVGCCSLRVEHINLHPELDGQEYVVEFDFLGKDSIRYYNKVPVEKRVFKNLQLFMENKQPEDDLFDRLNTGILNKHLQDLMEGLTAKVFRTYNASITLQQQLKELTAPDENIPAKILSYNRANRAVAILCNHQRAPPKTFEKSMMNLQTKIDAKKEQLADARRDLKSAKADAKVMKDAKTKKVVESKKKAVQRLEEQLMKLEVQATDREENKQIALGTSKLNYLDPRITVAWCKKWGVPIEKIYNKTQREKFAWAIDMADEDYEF
Description: To obtain large quantity of human topoisomerase I, the human topoisomerase I cDNA was cloned into the pET-11a vector, in which transcription of the cDNA is under the control of the inducible T7 promoter (Studier et al., Methods in Enzymol., Vol. 185:60-89, San Diego: Academic Press (1990)). Briefly, a 3.4 kb DNA fragment containing the entire coding sequence of human topoisomerase I and approximately 1 kb of untranslated region downstream of the stop codon was isolated from the plasmid YCpGAL1-hTOP1 (Bjornsti et al., Cancer Res. 49:6318-6323 (1989)) by cutting at the BamHI and EcoRI sites. The vector pET-11a was cut with the same restriction enzymes, dephosphorylated and ligated to the insert in the proper reading-frame downstream of the vector cloning site. The ligation mixture was used to transform E. coli, the correct clone pET1B was isolated (see figure 2A for the map) and its identity confirmed by restriction mapping. Since the translational start in pET is positioned at an upstream NdeI site, the expressed topoisomerase I has a 15 amino acid fusion at its N-terminus. pET1B was then transformed into E. coli BL21(DE3), and, upon induction with 0.4 mM IPTG for 1 hour, the bacterial lysate was analyzed by 10 % SDS-PAGE. Expression was confirmed by Western blotting using rabbit antibodies against human topoisomerase I. Isolation of the expressed protein was done by a simple procedure. Briefly, E. coli cells were lysed by repeated sonic bursts. The sonic extract was made in 1 M NaCl and 6% polyethylene glycol (PEG) to remove nucleic acids. The PEG supernatant was chromatographed directly on a hydroxyapatite column. Expressed human DNA topoisomerase I was eluted at the 0.6 M potassium phosphate step. The eluted enzyme was dialyzed against 50% glycerol, 30 mM potassium phosphate (pH 7.0), 1 mM dithiothreitol (DTT) and 0.1 mM EDTA and stored at -20°C.
(§1) Cleavage assays for the recombinant topoisomerases I and calf thymus topoisomerases I and II were done as described (Liu et al., J. Biol. Chem. 258:15365-15370 (1983)). The plasmid YEpG DNA used for the cleavage assays was prepared and labeled at its 3'-end using the published procedures.

[1] = molecular target: T2, recombinant CPT-K5 topoisomerase I (Homo sapiens, UniProt P11387, D533G); test: Cleavage assay with camptothecin-resistant mutant topo I; format: biochemical; settings: relative to wildtype human topoisomerase I
T2 construct: 15 amino acid vector-derived fusion (pET-11a leader); made in house; host or cells: E. coli BL21(DE3)
T2 sequence (P11387 1-765 D533G): T1 sequence (P11387 1-765) with D533G
Procedure: as §1

SMILES: CC[C@@]1(O)C(=O)OCc2c1cc1n(c2=O)Cc2cc3ccccc3nc2-1 [CPT, camptothecin, reference compound]
- Topo I-mediated DNA cleavage (REC, Relative Effective Concentration) (human topoisomerase I; concentration relative to camptothecin (CPT) = 1 producing the same cleavage on the plasmid DNA): 1
- EC (total cleavage) (human topoisomerase I; read-out: concentration giving total cleavage of DNA in the presence of topoisomerase I): 0.29 µM and 0.1 µg/mL
- resistance of recombinant CPT-K5 topoisomerase I to the drug [1]: over 1000 fold
